Laboratory results from US20120022121A1, “INDOLES, DERIVATIVES AND ANALOGS THEREOF AND USES THEREFOR” (priority 2007, published 2012).

Assays:
CV-1 = assay: Cell viability SRB assay, 96 h; assay type: cell-based; details: Cercopithecidae, CV-1 fibroblast cell line
Protocol: (§1) Cells were plated in 96-well plates at a density of 800-5,000 cells/well, depending on the cell line, in their required growth media containing 10% fetal bovine serum. Preliminary studies were performed with each cell line using a variety of cell densities and incubation times to determine appropriate seeding densities. The compound of interest was dissolved in DMSO, diluted in cell culture medium (final DMSO concentration was less than 0.5% v/v), and added to quadruplicate wells at final concentrations ranging from 0 to 100 μM. Control wells to which only drug-free vehicle was added were included as negative controls.
(§2) Cells were incubated for 96 hour at 37° C. in a humidified atmosphere containing 5% carbon dioxide.

TSU = assay: Cell viability SRB assay, 96 h; assay type: cell-based; details: Homo sapiens, TSU (TSU-Pr1)
Protocol: (§3) Cell viability (LNCaP, PC-3 prostate, DU145, PPC-1, and TSU-Pr1 prostate cancer cell lines, HT-29 colon cancer cell line, and MCF-7 breast cancer cell line) was quantitated using the sulforhodamine B (SRB) assay after 96 h coincubation with different concentrations of compound in 96-well plates. Cell viability of leukemia cells (K562 and doxorubicin-resistant K562/Dox) was quantitated by MTT assay after 96 h coincubation with different concentrations of compound in 96-well plates. Drug-induced apoptosis was determined by anti-histone ELISA assay and DNA laddering. Cell cycle progression was assessed by propidium iodide staining and fluorescence-activated cell sorting (FACS) analysis. In vitro tubulin polymerization assay was determined by CytoDYNAMIX ScreenTM3 (CDS-03) kits according to the manufacturer's instructions. Anti-apoptosis protein (Bcl-2 and Bcl-xl) and pro-apoptosis protein (Bax) were examined in LNCaP and PC-3 after 24 h incubation with different concentrations of compound 13 by Western blot assay. In vivo PC-3 xenograft studies were conducted by i.v. dosing of 50 mg/kg, 100 mg/kg and 150 mg/kg for 2 weeks.
as §1, §2
(§4) Cells were stained with SRB solution. […] WinNonlin was provided by a Pharsight Academic License to The Ohio State University.

PC-3 [1] = assay: Cell viability SRB assay, 96 h; assay type: cell-based; details: Homo sapiens, PC-3, 96 h
Protocol: as §3, §1, §2, §4

LNCaP [2] = assay: Cell viability SRB assay, 96 h; assay type: cell-based; details: Homo sapiens
Protocol: as §3, §1, §2, §4

PPC-1 [3] = assay: Cell viability SRB assay, 96 h; assay type: cell-based; details: Homo sapiens, PPC-1, 96 h
Protocol: as §3, §1, §2, §4

DU-145 = assay: Cell viability SRB assay, 96 h; assay type: cell-based; details: Homo sapiens, DU-145, 96 h
Protocol: as §3, §1, §2, §4

Rotarod performance = assay type: in vivo, ICR mice; details: 0.5 mg/kg i.p. q2d
Protocol: The training and rotarod test was conducted as described previously. Briefly, during the training phase for 2 consecutive days (3 trials/day), mice (10 mice/group) were trained to run in a rotarod apparatus without falling at a constant speed (12 rpm) for a maximum of 2 min. For the rotarod performance test, duration of each trial was less than 5 min. […] Tests were performed for 2 weeks (2 days/week). The animals were tested in three trials per day with an intertrial interval of 30 min. Animal performance was recorded as the average elapsed time for the mice to fall off.

MCF-7 = assay: Cell viability SRB assay, 96 h; assay type: cell-based; details: Homo sapiens, MCF7; MCF-7, 96 h
Protocol: as §3, §1, §2, §4

HT-29 = assay: Cell viability SRB assay, 96 h; assay type: cell-based; details: Homo sapiens, HT-29, 96 h
Protocol: as §3, §1, §2, §4

LNCaP [4] = assay: Cytotoxicity assay (SRB, 96 h); assay type: cell-based; details: Homo sapiens
PPC-1 [5] = assay: Cytotoxicity assay (SRB, 96 h); assay type: cell-based; details: Homo sapiens, PPC-1, 96 h
A375 = assay: Cytotoxicity assay (SRB, 48 h); assay type: cell-based, human
[6] = test system: melanoma and prostate cancer cell lines; assay: Cytotoxicity assay (SRB), summary over the cell lines of Table 3; assay type: cell-based; details: Homo sapiens
WM164 = assay: Cytotoxicity assay (SRB, 48 h); assay type: cell-based, human; details: WM164 melanoma
Du 145 = assay: Cytotoxicity assay (SRB, 96 h); assay type: cell-based; details: Homo sapiens; Du 145, 96 h
PC-3 [7] = assay: Cytotoxicity assay (SRB, 96 h); assay type: cell-based; details: Homo sapiens, PC-3, 96 h
[8] = Homo sapiens, A-375, 48 h, A375 melanoma
[9] = Homo sapiens, A-375, A375 melanoma

Row | Compound | IC50 (CV-1) [µM] | IC50 (TSU) [µM] | IC50 (PC-3 [1]) [µM] | IC50 (LNCaP [2]) [µM] | IC50 (PPC-1 [3]) [µM] | IC50 (DU-145) [µM] | melting point [°C] | IC50 (LNCaP [4]) [µM] | IC50 (PPC-1 [5]) [µM] | IC50 [6] [µM] | IC50 (Du 145) [µM] | IC50 (PC-3 [7]) [µM] | further results
1 | O=Cc1cccc(-c2cc3ccccc3n2S(=O)(=O)c2ccccc2)c1 [Compound 5] | > 100 | 11.5 ± 0.1 | 23.2 ± 1.4 | 17.7 ± 1.2 | 13.9 ± 0.2 | 19.7 ± 1.3 | 126 to 138 |  |  |  |  |  | 
2 | CC[C@]1(O)C[C@H]2CN(CCc3c([nH]c4ccccc34)[C@@](C(=O)OC)(c3cc4c(cc3OC)N(C=O)[C@H]3[C@@](O)(C(=O)OC)[C@H](OC(C)=O)[C@]5(CC)C=CCN6CC[C@]43[C@@H]65)C2)C1 [vincristine] |  |  |  |  |  |  |  |  |  |  |  |  | rotarod performance (Rotarod performance; day 4 to day 14): impaired performance; mean time on the rotating rod (Rotarod performance; end of 2 weeks (vehicle 151 s)): 104 s
3 | COc1ccc(C(=O)c2cccc(-c3cc4ccccc4[nH]3)c2)cc1OC [Compound 83, (3,4-Dimethoxy-phenyl)-[3-(1H-indol-2-yl)-phenyl]-methanone] |  | 0.044 | 0.069 ± 0.012 | 0.051 | 0.04 | 0.131 |  |  |  |  |  |  | IC50 (MCF-7): 0.043 µM; IC50 (HT-29): 0.119 µM
4 | COc1cc(C(O)(c2nc3ccccc3s2)c2nc3ccccc3s2)cc(OC)c1OC [Compound 127, Bis(benzo[d]thiazol-2-yl)(3,4,5-trimethoxyphenyl)methanol] |  |  |  |  |  |  | 50 to 52 | > 10 | > 10 | > 10 | > 10 | > 10 | IC50 (A375; [8]): > 10 µM; IC50 (WM164; Homo sapiens, WM164, 48 h): > 10 µM
5 | COc1cc(C(=O)c2nc3ccccc3o2)cc(OC)c1OC [Compound 123b, Benzo[d]oxazol-2-yl(3,4,5-trimethoxyphenyl)methanone] |  |  |  |  |  |  | 89 to 91 | > 10 | > 10 | > 10 | > 10 | > 10 | IC50 (A375; [8]): > 10 µM; IC50 (WM164; Homo sapiens, WM164, 48 h): > 10 µM
6 | O=C(c1cccc(-c2cc3ccccc3n2S(=O)(=O)c2ccccc2)c1)c1cc2ccccc2n1S(=O)(=O)c1ccccc1 [Compound 12, (1-Benzenesulfonyl-1H-indol-2-yl)-[3-(1-benzenesulfonyl-1H-indol-2-yl)phenyl]methanone] | > 100 | > 100 | > 100 | > 100 | > 100 | > 100 | 189 to 190 |  |  |  |  |  | 
7 | COc1cc(C(=O)c2cc3cc(Cl)ccc3[nH]2)cc(OC)c1OC [Compound 115, (5-Chloro-1H-indol-2-yl)(3,4,5-trimethoxyphenyl)methanone] |  |  |  |  |  |  | 252 to 254 | > 10 | > 10 | 1 to 10 | > 10 | > 10 | IC50 (A375; A375 melanoma): 1.47 µM; IC50 (WM164): 2.16 µM
8 | O=S(=O)(c1ccccc1)n1c(-c2cccc(C(O)c3cc4ccccc4n3S(=O)(=O)c3ccccc3)c2)cc2ccccc21 (centres unmarked) [Compound 8, (1-benzenesulfonyl-1H-indol-2-yl)-[3-(1-benzenesulfonyl-1H-indol-2-yl)phenyl]methanol] | > 100 | > 100 | > 100 | > 100 | 30 | > 100 | 81 to 83 |  |  |  |  |  | 
9 | COc1cc(OC)cc(C(=O)c2cccc(-c3cc4ccccc4[nH]3)c2)c1 [Compound 82, (3,5-Dimethoxy-phenyl)-[3-(1H-indol-2-yl)-phenyl]-methanone] |  | 0.065 | 0.075 ± 0.016 | 0.082 | 0.069 | 0.134 |  |  |  |  |  |  | IC50 (MCF-7): 0.054 µM; IC50 (HT-29): 0.092 µM
10 | COc1ccc2cc(C(=O)c3cc(OC)c(OC)c(OC)c3)[nH]c2c1 [Compound 114, (6-Methoxy-1H-indol-2-yl)(3,4,5-trimethoxyphenyl)methanone] |  |  |  |  |  |  | 167 to 169 | > 10 | > 10 | > 10 | > 10 | > 10 | IC50 (A375; [9]): > 10 µM; IC50 (WM164; Homo sapiens): > 10 µM
11 | COc1cc(C(=O)c2cccc(-c3cc4cc(F)ccc4[nH]3)c2)cc(OC)c1OC [Compound 90, [3-(5-Fluoro-1H-indol-2-yl)-phenyl]-(3,4,5-trimethoxy-phenyl)-methanone] |  |  | 0.031 ± 0.004 | 0.032 | 0.028 | 0.028 |  |  |  |  |  |  | IC50 (MCF-7): 0.039 µM
12 | O=S(=O)(c1ccccc1)n1c(B(O)O)cc2ccccc21 [Compound 7, 1-(phenylsulfonyl)-1H-indol-2-yl-boronic acid, reference compound] | > 100 | 48.2 ± 3.4 | 73.9 ± 7.1 | 23.1 ± 4 | 80.8 ± 1.2 | 72 ± 3.4 |  |  |  |  |  |  | 
13 | c1cc(Cc2cc3ccccc3[nH]2)cc(-c2cc3ccccc3[nH]2)c1 [Compound 10, (1H-Indol-2-yl)-[3-(1H-indol-2-yl)phenyl]methane] | > 50 | 20 to 50 | > 50 | > 50 | > 50 | 18.4 | 193 to 194 |  |  |  |  |  | IC50 (HT-29): 0.72 µM
14 | COc1cc(C(=O)c2nc3ccccc3[nH]2)cc(OC)c1OC [Compound 118, (1H-benzo[d]imidazol-2-yl)(3,4,5-trimethoxyphenyl)methanone] |  |  |  |  |  |  | 191 to 193 | > 10 | > 10 | > 10 | > 10 | > 10 | IC50 (A375; [8]): > 10 µM; IC50 (WM164; Homo sapiens, WM164, 48 h): > 10 µM
15 | O=S(=O)(c1ccccc1)n1c(Br)cc2ccccc21 [Compound 3, 2-bromo-1-(benzenesulfonyl)indole] | > 100 | 44.9 ± 2 | 69.3 ± 2.1 | 29.6 ± 2.2 | 52.1 ± 1.1 | 63.9 ± 1.9 |  |  |  |  |  |  | 
16 | COc1cc(C(=O)c2nc3ccccc3s2)cc(OC)c1OC [Compound 123a, Benzo[d]thiazol-2-yl(3,4,5-trimethoxyphenyl)methanone] |  |  |  |  |  |  | 144 to 146 | > 10 | > 10 | > 10 | > 10 | > 10 | IC50 (A375; [8]): > 10 µM; IC50 (WM164; Homo sapiens, WM164, 48 h): > 10 µM
17 | COc1cc(C(=O)c2cc3ccc(Cl)cc3[nH]2)cc(OC)c1OC [Compound 112, (6-Chloro-1H-indol-2-yl)(3,4,5-trimethoxyphenyl)methanone] |  |  |  |  |  |  | 207 to 209 | > 10 | > 10 | > 10 | > 10 | > 10 | IC50 (A375; [8]): > 10 µM; IC50 (WM164; Homo sapiens, WM164, 48 h): > 10 µM
18 | COc1cc(C(=O)c2cc3ccc(F)cc3n2C)cc(OC)c1OC [Compound 121, (6-Fluoro-1-methyl-1H-indol-2-yl)(3,4,5-trimethoxyphenyl)methanone] |  |  |  |  |  |  |  | 1.05 | 8.3 | 1 to 10 | > 10 | > 10 | IC50 (A375; [9]): 5.87 µM; IC50 (WM164; Homo sapiens): 7.5 µM
19 | O=S(=O)(c1ccccc1)n1cc(B(O)O)c2ccccc21 [Compound 129, reference compound] | > 100 | 39.3 ± 1.6 | 59.9 ± 1.8 | 18.3 ± 1.4 | 41.1 ± 1.8 | 55.1 ± 2.5 |  |  |  |  |  |  | 
20 | c1ccc2c(Cc3c[nH]c4ccccc34)c[nH]c2c1 [Compound 128, di(1H-indol-3-yl)methane, reference compound] | > 100 | 45.7 ± 1.1 | 39.4 ± 1.7 | 5.8 ± 0.5 | 31.8 ± 1.1 | 39.7 ± 2.6 |  |  |  |  |  |  | 
